Test results: US20110105515A1, “TARGETING THE ONCOPROTEIN NUCLEOPHOSMIN” (President and Fellows of Harvard College, priority 2007, published 2011)

What was measured:
SW-620 = SW-620 (Colon Cancer), 48 hours, SRB
NCI-H23 = NCI-H23 (Non-Small Cell Lung Cancer), 48 hours, SRB
CCRF-CEM = CCRF-CEM (Leukemia), 48 hours, SRB
MDA-MB-468 = MDA-MB-468 (Breast Cancer), 48 hours, SRB
A549/ATCC = A549/ATCC (Non-Small Cell Lung Cancer), 48 hours, SRB
SN12C = SN12C (Renal Cancer), 48 hours, SRB
SR = SR (Leukemia), 48 hours, SRB
SF-539 = SF-539 (CNS Cancer), 48 hours, SRB
ACHN = ACHN (Renal Cancer), 48 hours, SRB
NCI-H226 = NCI-H226 (Non-Small Cell Lung Cancer), 48 hours, SRB
OVCAR-3 = OVCAR-3 (Ovarian Cancer), 48 hours, SRB
NCI/ADR-RES = NCI/ADR-RES (Breast Cancer), 48 hours, SRB
HT29 = HT29 (Colon Cancer), 48 hours, SRB
PC-3 = PC-3 (Prostate Cancer), 48 hours, SRB
DU-145 = DU-145 (Prostate Cancer), 48 hours, SRB
TK-10 = TK-10 (Renal Cancer), 48 hours, SRB
SK-MEL-2 = SK-MEL-2 (Melanoma), 48 hours, SRB
MDA-MB-435 = MDA-MB-435 (Breast Cancer), 48 hours, SRB
T-47D = T-47D (Breast Cancer), 48 hours, SRB
SF-295 = SF-295 (CNS Cancer), 48 hours, SRB
HCT-15 = HCT-15 (Colon Cancer), 48 hours, SRB
OVCAR-8 = OVCAR-8 (Ovarian Cancer), 48 hours, SRB
EKVX = EKVX (Non-Small Cell Lung Cancer), 48 hours, SRB
RXF 393 = RXF 393 (Renal Cancer), 48 hours, SRB
HS578T = HS578T (Breast Cancer), 48 hours, SRB
MOLT-4 = MOLT-4 (Leukemia), 48 hours, SRB
786-0 = 786-0 (Renal Cancer), 48 hours, SRB
UACC-257 = UACC-257 (Melanoma), 48 hours, SRB
RPMI-8226 = RPMI-8226 (Leukemia), 48 hours, SRB
SF-268 = SF-268 (CNS Cancer), 48 hours, SRB

## CC1(C)C=Cc2c(ccc3c4c(n(O)c23)C(C)(C)C2CC35CCCN3C(=O)C2(NC5=O)C4SCC(NC(=O)CCC(N)C(=O)O)C(=O)NCC(=O)O)O1 (centres unmarked) [Glutathione Adduct]
SW-620
  GI50: 0.713 µM
  TGI: 1.5 µM
SW-620; read-out: LC50
  CC50: 3.81 µM
NCI-H23
  GI50: 1.09 µM
  TGI: 3.07 µM
NCI-H23; read-out: LC50
  CC50: 14.9 µM
CCRF-CEM
  GI50: 0.672 µM
  TGI: 2.03 µM
CCRF-CEM; read-out: LC50
  CC50: 35 µM
MDA-MB-468
  GI50: 0.674 µM
  TGI: 1.62 µM
A549/ATCC
  GI50: 1.37 µM
  TGI: 3.94 µM
A549/ATCC; read-out: LC50
  CC50: 15.8 µM
SN12C
  GI50: 1.51 µM
  TGI: 5.64 µM
SN12C; read-out: LC50
  CC50: 17.8 µM
SR
  GI50: 0.228 µM
  TGI: 1.28 µM
SR; read-out: LC50
  CC50: 16.7 µM
SF-539
  GI50: 0.838 µM
  TGI: 2.03 µM
SF-539; read-out: LC50
  CC50: 4.9 µM
ACHN
  GI50: 0.961 µM
  TGI: 3.22 µM
ACHN; read-out: LC50
  CC50: 12.3 µM
NCI-H226
  GI50: 0.802 µM
  TGI: 2.29 µM
NCI-H226; read-out: LC50
  CC50: 8.33 µM
OVCAR-3
  GI50: 0.735 µM
  TGI: 1.52 µM
OVCAR-3; read-out: LC50
  CC50: 3.13 µM
NCI/ADR-RES
  GI50: 3.94 µM
  TGI: 14 µM
NCI/ADR-RES; read-out: LC50
  CC50: 44.7 µM
HL-60(TB)
  CC50: 13.3 µM
  GI50: 0.321 µM
  TGI: 1.62 µM
HT29
  GI50: 0.9 µM
  TGI: 2.01 µM
HT29; read-out: LC50
  CC50: 4.51 µM
PC-3
  GI50: 0.906 µM
  TGI: 2.59 µM
PC-3; read-out: LC50
  CC50: 11.6 µM
DU-145
  GI50: 1.16 µM
  TGI: 2.65 µM
DU-145; read-out: LC50
  CC50: 7.88 µM
TK-10
  GI50: 1.09 µM
  TGI: 5.46 µM
TK-10; read-out: LC50
  CC50: 17.4 µM
SK-MEL-2
  GI50: 0.877 µM
  TGI: 2.44 µM
SK-MEL-2; read-out: LC50
  CC50: 10.9 µM
MDA-MB-435
  GI50: 1.1 µM
  TGI: 5.2 µM
MDA-MB-435; read-out: LC50
  CC50: 22 µM
T-47D
  GI50: 0.319 µM
  TGI: 2.47 µM
T-47D; read-out: LC50
  CC50: 46 µM
SF-295
  GI50: 1.45 µM
  TGI: 6.58 µM
SF-295; read-out: LC50
  CC50: 24.4 µM
HCT-15
  GI50: 0.84 µM
  TGI: 2.04 µM
HCT-15; read-out: LC50
  CC50: 4.93 µM
OVCAR-8
  GI50: 1.6 µM
  TGI: 6.38 µM
OVCAR-8; read-out: LC50
  CC50: 29.8 µM
EKVX
  GI50: 1.11 µM
  TGI: 5.4 µM
EKVX; read-out: LC50
  CC50: 18.9 µM
RXF 393
  GI50: 0.829 µM
  TGI: 1.75 µM
RXF 393; read-out: LC50
  CC50: 3.69 µM
HS578T
  GI50: 1.11 µM
  TGI: 3.79 µM
HS578T; read-out: LC50
  CC50: > 50 µM
MOLT-4
  GI50: 0.425 µM
  TGI: 1.75 µM
MOLT-4; read-out: LC50
  CC50: 20.6 µM
786-0
  GI50: 1.12 µM
  TGI: 2.44 µM
786-0; read-out: LC50
  CC50: 6.03 µM
UACC-257
  GI50: 1.07 µM
  TGI: 5.43 µM
UACC-257; read-out: LC50
  CC50: 17.3 µM
RPMI-8226
  GI50: 0.159 µM
  TGI: 1.14 µM
RPMI-8226; read-out: LC50
  CC50: > 50 µM
SF-268
  GI50: 1.13 µM
  TGI: 2.88 µM
SF-268; read-out: LC50
  CC50: 10.9 µM
